From ChEMBL document CHEMBL1156829 (Proc Natl Acad Sci U S A, 2008)
pEC50: −log10 of the molar value. Several values for one entry are separate records, joined by “and”; a condition that tells them apart may be missing. Identical values can stand only once.

Columns and labels:
Plasmodium falciparum [1] = assay: NOVARTIS: Inhibition of Plasmodium falciparum 3D7 (drug-susceptible) proliferation in erythrocyte-based infection assay; type: functional, organism-based
Plasmodium falciparum [2] = assay: NOVARTIS: Inhibition of Plasmodium falciparum W2 (drug-resistant) proliferation in erythrocyte-based infection assay; type: functional, organism-based; settings: read-out: EC50
Huh-7 = assay: NOVARTIS: Cytotoxicity against human hepatocellular carcinoma cell line (Huh7); type: toxicity, cell-based; settings: huh-7, read-out: CC50

SMILES | pEC50 (Plasmodium falciparum [1]) | pEC50 (Plasmodium falciparum [2]) | CC50 (Huh-7) | pEC50 (Plasmodium falciparum [2]; Plasmodium falciparum, W2) | pEC50 (Plasmodium falciparum [1]; Plasmodium falciparum, 3D7)
CC[n+]1c(/C=C/N(C)c2ccccc2)n(-c2ccccc2)c2ccc(-c3nc4ccccc4s3)cc21 | < 6.03 and 6.34 | < 5.76 and 6.50 | > 10000 nM and 26900 nM | – | –
CCN1/C(=C/c2ccc3ccccc3[n+]2CC)C=Cc2ccccc21 | 6.21 and 7.18 | 6.26 and 6.72 | > 10000 nM and 36800 nM | – | –
CCN1C(=Cc2sc3ccccc3[n+]2C)C=Cc2cccc(C)c21 | 6.31 | 6.10 | > 10000 nM | – | –
CC[n+]1c(C=C2Sc3ccccc3N2CCO)sc2ccccc21 | 5.85 | < 5.83 | > 10000 nM | – | –
Cc1ccc(N=C2NC(=O)/C(=C\c3ccc(N(C)C)cc3)S2)cc1 | 6.21 and 5.83 | 6.31 and 5.90 | > 100000 nM | – | –
CCN1/C(=C/c2ccc3ccccc3[n+]2CC)Sc2cc(NC(C)=O)ccc21 [listing 1 of 2 here] | 6.95 | 7.15 | > 100000 nM | – | –
C[n+]1ccc(C=Cc2ccc(O)cc2)cc1 | 6.52 | 6.76 | > 10000 nM | – | –
CCN1/C(=C/c2ccc3ccccc3[n+]2CC)Sc2cc(NC(C)=O)ccc21 [listing 2 of 2 here] | 6.03 | 6.15 | > 10000 nM | – | –
CCN1/C(=C/c2[se]c3ccccc3[n+]2CC)C=Cc2cc(OC)ccc21 [listing 1 of 2 here] | 5.80 | 6.01 | 12700 nM | – | –
Cc1occc1C(=O)NN=C/C(Br)=C/c1ccccc1 | 5.86 and 6.69 | 6.30 | > 10000 nM and 47100 nM | 6.23 | –
CCN1/C(=C/c2cccc[n+]2C)Sc2ccc(C)cc21 | 6.31 and 5.87 | 6.26 and 5.64 | > 100000 nM | – | –
CCN(CC)c1ccc(C=Cc2cccc[n+]2CC)cc1 | 8.61 | 6.54 | > 10000 nM | – | –
CCCC[n+]1c(C=C2C=Cc3ccccc3N2CC)sc2ccccc21 | 7.09 | 6.64 | 6120 nM | – | –
CCN1C(=Cc2sc3ccccc3[n+]2CC)[Se]c2ccccc21 | 6.81 | – | 5340 nM and 11800 nM | – | 6.64
CC[n+]1ccccc1C=Cc1ccc(N(C)C)cc1 | 6.58 and 6.46 | 5.90 and 6.57 and 6.42 | 15200 nM and > 10000 nM and > 100000 nM | – | 6.44
CC[n+]1c(C=CN(C)c2ccccc2)oc(-c2ccccc2)c1-c1ccccc1 | 6.21 and 6.71 | 6.39 and 6.98 | > 10000 nM and 2740 nM | – | –
CCN1/C(=C/c2cccc[n+]2C)C=Cc2ccc(C)cc21 | 6.65 and 6.31 | 6.35 | > 49800 nM | 6.48 | –
COc1cc(/C=C2/SC(=Nc3ccccc3)NC2=O)ccc1OCc1ccccc1F | < 5.96 and 5.44 | < 4.90 | > 100000 nM | – | –
CC[n+]1c(/C=C/N2CCCc3ccccc32)ccc2ccccc21 | 6.99 | 6.61 | > 9970 nM | – | –
CC[n+]1c(C=CN(C)C)sc2ccccc21 | 6.35 | 6.34 | > 10000 nM | – | –
CCN1C(=Cc2sc3cc(NC(C)=O)ccc3[n+]2CC)C=Cc2cc(C)ccc21 | 5.80 | – | > 10000 nM | 6.25 | –
CC[n+]1c(/C=C2\C=Cc3cc(C)ccc3N2C)ccc2cc(C)ccc21 | < 5.94 and 6.65 | 6.02 | > 10000 nM and 32100 nM | < 5.90 | –
CCN1/C(=C\C=C\c2n(CC)c3ccc(C#N)cc3[n+]2CC)Oc2ccc(-c3ccccc3)cc21 [listing 1 of 2 here] | 5.41 | 5.22 | > 100000 nM | – | –
CCOC(=O)c1ccc(-n2c(C)cc(/C=C3\SC(=Nc4ccc(Cl)cc4)NC3=O)c2C)cc1 | 6.07 and 5.47 | 5.85 | > 100000 nM | 5.77 | –
Cc1ccc(-n2c(C)cc(/C=C3\SC(=Nc4ccc(Cl)cc4)NC3=O)c2C)cc1 | 6.29 and 6.71 | 6.20 | > 100000 nM | 6.21 | –
CC(C)c1ccc(/C=C2/SC(=Nc3ccccc3)NC2=O)cc1 | 6.00 and 6.32 | 6.00 | > 100000 nM | 5.95 | –

SMILES | pEC50 (Plasmodium falciparum [1]) | pEC50 (Plasmodium falciparum [2]) | CC50 (Huh-7) | pEC50 (Plasmodium falciparum [2]; Plasmodium falciparum, W2) | pEC50 (Plasmodium falciparum [1]; Plasmodium falciparum, 3D7)
CCN1/C(=C/c2cccc[n+]2C)Sc2ccccc21 | 5.37 and 6.36 | 5.97 and 5.57 | > 100000 nM | – | –
O=C1NC(=Nc2ccccc2)/C(=C/c2ccc(O)cc2)S1 | 6.09 | 5.67 | > 10000 nM and 21000 nM | < 5.96 | < 5.90
CCN1/C(=C\C=C\c2n(CC)c3ccc(C#N)cc3[n+]2CC)Oc2ccc(-c3ccccc3)cc21 [listing 2 of 2 here] | 6.21 | 5.98 | > 10000 nM | – | –
CC[n+]1c(/C=C2\Sc3cc(C)ccc3N2CCO)ccc2ccccc21 | 5.92 and 6.71 | 6.06 and 6.64 | > 10000 nM and 21300 nM | – | –
O=C(Nc1ccc(-c2nc3cc(NC(=O)c4cccc([N+](=O)[O-])c4)ccc3[nH]2)cc1)c1cccc([N+](=O)[O-])c1 | 6.49 | 6.20 and 6.61 | 1670 nM and 667 nM | – | 6.31
C/C(C=NNC(=O)c1ccco1)=C\c1ccccc1 | < 5.76 and 6.31 | 6.19 | > 100000 nM | < 5.96 | –
COc1ccc2c(c1)N(C)/C(=C/c1cccc[n+]1C)S2 | 6.03 and 6.66 | < 6.10 and 6.52 | > 100000 nM | – | –
C=C[C@H]1C[N@]2CC[C@H]1C[C@@H]2[C@@H](OC(=O)Cc1cccs1)c1ccnc2ccccc12 | 8.01 and 7.21 | 7.10 | > 10000 nM and 95100 nM | 7.33 | –
C[n+]1ccc(/C=C/c2c[nH]c3ccccc23)cc1 | 6.87 and 6.33 | 7.02 | > 100000 nM | 7.20 | –
CCN1/C(=C/c2[se]c3ccccc3[n+]2CC)C=Cc2cc(OC)ccc21 [listing 2 of 2 here] | 6.77 | 6.58 | 4950 nM | – | –
O=C1NN(c2ccccc2)C(=O)/C1=C1/C(=O)N(Cc2cccc3ccccc23)c2ccccc21 | < 6.27 and 5.30 | < 5.90 and 5.49 | > 100000 nM | – | –
O=C1NC(=Nc2ccccc2)S/C1=C/c1ccc(F)c(Br)c1 | < 4.90 | 5.79 and < 7.03 | > 100000 nM | – | –
CCOc1ccc(Br)cc1/C=C1\SC(=Nc2ccccc2CC)N(c2ccccc2CC)C1=O | 5.08 and < 6.08 | < 5.90 and 5.31 | > 100000 nM | – | –
Cc1ccc(/C=C2/SC(=Nc3ccccc3)NC2=O)c(C)c1 | 6.33 and 6.64 | 6.45 | > 100000 nM | 6.34 | –
CCN1C=C/C(=C\c2cccc[n+]2C)c2ccccc21 | 5.99 | 6.17 and 5.71 | > 100000 nM | – | 6.08
CCCCN1C(=Cc2cccc[n+]2C)Sc2cc(NC(C)=O)ccc21 | 5.68 | 5.44 | > 100000 nM | – | –
CCCCCC[n+]1ccccc1C=Cc1ccc(N(C)C)cc1 | 7.02 | 6.68 | 2410 nM | – | –
CC[n+]1c(/C=C2\Sc3oc4ccccc4c3N2C)ccc2cc(C)ccc21 | 7.06 and 6.60 | 7.05 | 3590 nM and 13600 nM | 7.07 | –
CCN1/C(=C/c2ccc3cc(C)ccc3[n+]2C)Sc2ccc3ccsc3c21 | 6.02 and 6.43 | 6.07 | > 10000 nM and 55900 nM | < 5.90 | –
CCN1C(=Cc2sc3ccc(OC)cc3[n+]2CC)C=Cc2ccccc21 | 6.38 | – | 9870 nM | 6.60 | –
C=C(c1ccccc1)[n+]1ccc(/C=C/c2ccccc2O)cc1 | 6.45 and 6.13 | 6.54 | > 10000 nM and 92700 nM | 6.56 | –
CCN1/C(=C/C=C/C2=[N+](C)c3ccc(C)cc3C2(C)C)C=Cc2ccccc21 | 6.06 and 6.80 | 6.07 and 6.74 | > 10000 nM and 4990 nM | – | –
CCn1c(/C=C/N(C)c2ccccc2)[n+](CC)c2cc(Cl)ccc21 | 6.41 and 7.04 | 6.29 and 7.06 | 22600 nM and > 10000 nM | – | –
CCN1C(=Cc2sc3ccccc3[n+]2C)C=Cc2ccc(C)cc21 | 6.92 | 6.54 | 11400 nM | – | –
CN(C)c1ccc(C=Cc2cccc[n+]2C)cc1 | 6.50 | – | 3030 nM and > 10000 nM | – | 6.61
CCN1/C(=C/C=C/c2sc3ccccc3[n+]2CC)Sc2ccccc21 | 6.59 | 6.78 | 9030 nM | – | –
